Measured values: patent US20250163104A1, “MACROCYCLIC IMMUNOMODULATORS” (priority 2021, published 2025)
Where a SMILES comes first, the peptide text is derived from it. Bridges are numbered along the chain shown (N, C = ends). [ ]: non-standard residue; d: D form. The star is where a group is joined. Ala(morpholin-4-yl) = N[C@@H](CN1CCOCC1)C(=O)O; Phe(4-COOH) = N[C@@H](Cc1ccc(C(=O)O)cc1)C(=O)O; Bip = N[C@@H](Cc1ccc(-c2ccccc2)cc1)C(=O)O; Phe(3-Me) = Cc1cccc(C[C@H](N)C(=O)O)c1; Val(3-OH) = CC(C)(O)[C@H](N)C(=O)O; Cha = N[C@@H](CC1CCCCC1)C(=O)O; Carboxymethyl = O=C(O)C*; Orn = NCCC[C@H](N)C(=O)O; Pra = C#CC[C@H](N)C(=O)O; Dab = NCC[C@H](N)C(=O)O; Dap = NC[C@H](N)C(=O)O

Biological target: T1, human PD-1 / PD-L1-Ig binding on Jurkat cell line over-expressing human PD-1 (Jurkat-PD-1) (Homo sapiens, UniProt Q15116)
T1 construct: expressed in transfected cells; host or cells: Jurkat
T1 sequence (Q15116 25-288): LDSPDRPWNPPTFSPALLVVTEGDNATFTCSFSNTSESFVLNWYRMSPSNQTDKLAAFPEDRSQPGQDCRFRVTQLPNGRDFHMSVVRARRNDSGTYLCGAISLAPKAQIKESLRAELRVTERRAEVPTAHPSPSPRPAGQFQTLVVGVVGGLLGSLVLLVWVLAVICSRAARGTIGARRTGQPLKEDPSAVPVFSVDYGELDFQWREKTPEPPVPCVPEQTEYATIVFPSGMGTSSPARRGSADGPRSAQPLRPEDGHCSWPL
Assay: Jurkat-PD-1 Cell Binding High-Content Screening Assay (CBA)
Format: cell-based
Conditions: Jurkat-PD-1 cells, PE-labeled PD-L1-Ig 20 nM final; read-out: Jurkat HPD1_PDL1 IC50
Method in brief: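 Jurkat cells over-expressing human PD-1, in DMEM/10% FCS, pre-incubated with compound 2 h at 37° C. PE-labeled human PD-L1-Ig (20 nM final) added for 1 h; cells fixed in paraformaldehyde with Hoechst 33342 nuclear stain, washed, and bound fluorescence quantified by high-content imaging.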

Structure (SMILES)	IC50 [nM]
C#CC[C@H](NC(=O)[C@H](CCN)NC(=O)[C@@H]1CSCC(=O)N[C@@H](CCN)C(=O)N[C@@H](Cc2ccc(OCC(=O)O)cc2)C(=O)N[C@@H](CC(=O)O)C(=O)N[C@@H](Cc2cccc(C)c2)C(=O)N[C@@H](Cc2ccc(OCC(=O)O)cc2)C(=O)N[C@@H](Cc2ccc(-c3ccccc3)cc2)C(=O)N[C@@H](Cc2ccc(OCC(=O)O)cc2)C(=O)N[C@@H](CCCN)C(=O)N[C@H](CC(C)C)C(=O)N[C@@H](CCN)C(=O)N[C@@H](CC2CCCCC2)C(=O)N[C@@H](C(C)(C)O)C(=O)N[C@@H](CO)C(=O)N1)C(N)=O [Compound 1851] ({CH2CO}-[Dab]Y(Carboxymethyl)D[Phe(3-Me)]Y(Carboxymethyl)[Bip]Y(Carboxymethyl)[Orn][dL][Dab][Cha][Val(3-OH)]SC[Dab][Pra]-NH2; thioether N-14)	5.2
C#CC[C@H](NC(=O)[C@H](CCN)NC(=O)[C@@H]1CSCC(=O)N[C@@H](CN2CCOCC2)C(=O)N[C@@H](Cc2ccc(OCC(=O)O)cc2)C(=O)N[C@@H](CC(=O)O)C(=O)N[C@@H](Cc2cccc(C)c2)C(=O)N[C@@H](Cc2ccc(OCC(=O)O)cc2)C(=O)N[C@@H](Cc2ccc(-c3ccccc3)cc2)C(=O)N[C@@H](Cc2ccc(OCC(=O)O)cc2)C(=O)N[C@@H](CCCN)C(=O)N[C@H](CC(C)C)C(=O)N[C@@H](CCN)C(=O)N[C@@H](CC2CCCCC2)C(=O)N[C@@H](C(C)(C)O)C(=O)N[C@@H](CO)C(=O)N1)C(N)=O [Compound 1852] ({CH2CO}-[Ala(morpholin-4-yl)]Y(Carboxymethyl)D[Phe(3-Me)]Y(Carboxymethyl)[Bip]Y(Carboxymethyl)[Orn][dL][Dab][Cha][Val(3-OH)]SC[Dab][Pra]-NH2; thioether N-14)	18.9
C#CC[C@H](NC(=O)[C@H](CCN)NC(=O)[C@@H]1CSCC(=O)N[C@@H](CCCN)C(=O)N[C@@H](Cc2ccc(OCC(=O)O)cc2)C(=O)N[C@@H](CC(=O)O)C(=O)N[C@@H](Cc2cccc(C)c2)C(=O)N[C@@H](Cc2ccc(OCC(=O)O)cc2)C(=O)N[C@@H](Cc2ccc(-c3ccccc3)cc2)C(=O)N[C@@H](Cc2ccc(OCC(=O)O)cc2)C(=O)N[C@@H](CCCN)C(=O)N[C@H](CC(C)C)C(=O)N[C@@H](CCN)C(=O)N[C@@H](CC2CCCCC2)C(=O)N[C@@H](C(C)(C)O)C(=O)N[C@@H](CO)C(=O)N1)C(N)=O [Compound 1853] ({CH2CO}-[Orn]Y(Carboxymethyl)D[Phe(3-Me)]Y(Carboxymethyl)[Bip]Y(Carboxymethyl)[Orn][dL][Dab][Cha][Val(3-OH)]SC[Dab][Pra]-NH2; thioether N-14)	6.9
C#CC[C@H](NC(=O)[C@H](CCN)NC(=O)[C@@H]1CSCC(=O)N[C@@H](CCCN)C(=O)N[C@@H](Cc2ccc(OCC(=O)O)cc2)C(=O)N[C@@H](CC(=O)O)C(=O)N[C@@H](Cc2cccc(C)c2)C(=O)N[C@@H](Cc2ccc(OCC(=O)O)cc2)C(=O)N[C@@H](Cc2ccc(-c3ccccc3)cc2)C(=O)N[C@@H](Cc2ccc(OCC(=O)O)cc2)C(=O)N[C@@H](CCCN)C(=O)N[C@H](CC(C)C)C(=O)N[C@@H](CCN)C(=O)N[C@@H](CC2CCCCC2)C(=O)N[C@@H](C(C)(C)O)C(=O)N[C@@H]([C@@H](C)O)C(=O)N1)C(N)=O [Compound 1854] ({CH2CO}-[Orn]Y(Carboxymethyl)D[Phe(3-Me)]Y(Carboxymethyl)[Bip]Y(Carboxymethyl)[Orn][dL][Dab][Cha][Val(3-OH)]TC[Dab][Pra]-NH2; thioether N-14)	15.1

Results, then the compound that gave them:

IC50 [nM]	Structure (SMILES)
6.8	C#CC[C@H](NC(=O)[C@H](CCN)NC(=O)[C@@H]1CSCC(=O)N[C@@H](CCCN)C(=O)N[C@@H](Cc2ccc(OCC(=O)O)cc2)C(=O)N[C@@H](CC(=O)O)C(=O)N[C@@H](Cc2cccc(C)c2)C(=O)N[C@@H](Cc2ccc(OCC(=O)O)cc2)C(=O)N[C@@H](Cc2ccc(-c3ccccc3)cc2)C(=O)N[C@@H](Cc2ccc(OCC(=O)O)cc2)C(=O)N[C@@H](CCCN)C(=O)N[C@H](CC(C)C)C(=O)N[C@@H](CCN)C(=O)N[C@@H](CC2CCCCC2)C(=O)N[C@@H](C(C)C)C(=O)N[C@@H](CO)C(=O)N1)C(N)=O [Compound 1855] ({CH2CO}-[Orn]Y(Carboxymethyl)D[Phe(3-Me)]Y(Carboxymethyl)[Bip]Y(Carboxymethyl)[Orn][dL][Dab][Cha]VSC[Dab][Pra]-NH2; thioether N-14)
6	C#CC[C@H](NC(=O)[C@H](CCN)NC(=O)[C@@H]1CSCC(=O)N[C@@H](CN)C(=O)N[C@@H](Cc2ccc(C(=O)O)cc2)C(=O)N[C@@H](CC(=O)O)C(=O)N[C@@H](Cc2cccc(C)c2)C(=O)N[C@@H](Cc2ccc(C(=O)O)cc2)C(=O)N[C@@H](Cc2ccc(-c3ccccc3)cc2)C(=O)N[C@@H](Cc2ccc(C(=O)O)cc2)C(=O)N[C@@H](CCCN)C(=O)N[C@H](CC(C)C)C(=O)N[C@@H](CCN)C(=O)N[C@@H](CC2CCCCC2)C(=O)N[C@@H](C(C)(C)O)C(=O)N[C@@H](CCCN)C(=O)N1)C(N)=O [Compound 1856] ({CH2CO}-[Dap][Phe(4-COOH)]D[Phe(3-Me)][Phe(4-COOH)][Bip][Phe(4-COOH)][Orn][dL][Dab][Cha][Val(3-OH)][Orn]C[Dab][Pra]-NH2; thioether N-14)
7.4	C#CC[C@H](NC(=O)[C@H](CCN)NC(=O)[C@@H]1CSCC(=O)N[C@@H](CCCN)C(=O)N[C@@H](Cc2ccc(C(=O)O)cc2)C(=O)N[C@@H](CC(=O)O)C(=O)N[C@@H](Cc2cccc(C)c2)C(=O)N[C@@H](Cc2ccc(C(=O)O)cc2)C(=O)N[C@@H](Cc2ccc(-c3ccccc3)cc2)C(=O)N[C@@H](Cc2ccc(C(=O)O)cc2)C(=O)N[C@@H](CCCN)C(=O)N[C@H](CC(C)C)C(=O)N[C@@H](CCN)C(=O)N[C@@H](CC2CCCCC2)C(=O)N[C@@H](C(C)(C)O)C(=O)N[C@@H](Cc2cnc[nH]2)C(=O)N1)C(N)=O [Compound 1857] ({CH2CO}-[Orn][Phe(4-COOH)]D[Phe(3-Me)][Phe(4-COOH)][Bip][Phe(4-COOH)][Orn][dL][Dab][Cha][Val(3-OH)]HC[Dab][Pra]-NH2; thioether N-14)
5	C#CC[C@H](NC(=O)[C@H](CCN)NC(=O)[C@@H]1CSCC(=O)N[C@@H](CN)C(=O)N[C@@H](Cc2ccc(OCC(=O)O)cc2)C(=O)N[C@@H](CC(=O)O)C(=O)N[C@@H](Cc2cccc(C)c2)C(=O)N[C@@H](Cc2ccc(OCC(=O)O)cc2)C(=O)N[C@@H](Cc2ccc(-c3ccccc3)cc2)C(=O)N[C@@H](Cc2ccc(OCC(=O)O)cc2)C(=O)N[C@@H](CCCN)C(=O)N[C@H](CC(C)C)C(=O)N[C@@H](CCN)C(=O)N[C@@H](CC2CCCCC2)C(=O)N[C@@H](C(C)(C)O)C(=O)N[C@@H]([C@@H](C)O)C(=O)N1)C(N)=O [Compound 1858] ({CH2CO}-[Dap]Y(Carboxymethyl)D[Phe(3-Me)]Y(Carboxymethyl)[Bip]Y(Carboxymethyl)[Orn][dL][Dab][Cha][Val(3-OH)]TC[Dab][Pra]-NH2; thioether N-14)
2.1	C#CC[C@H](NC(=O)[C@H](CCN)NC(=O)[C@@H]1CSCC(=O)N[C@@H](CN2CCOCC2)C(=O)N[C@@H](Cc2ccc(OCC(=O)O)cc2)C(=O)N[C@@H](CC(=O)O)C(=O)N[C@@H](Cc2cccc(C)c2)C(=O)N[C@@H](Cc2ccc(OCC(=O)O)cc2)C(=O)N[C@@H](Cc2ccc(-c3ccccc3)cc2)C(=O)N[C@@H](Cc2ccc(OCC(=O)O)cc2)C(=O)N[C@@H](CCCN)C(=O)N[C@H](CC(C)C)C(=O)N[C@@H](CCN)C(=O)N[C@@H](CC2CCCCC2)C(=O)N[C@@H](C(C)(C)O)C(=O)N[C@@H]([C@@H](C)O)C(=O)N1)C(N)=O [Compound 1859] ({CH2CO}-[Ala(morpholin-4-yl)]Y(Carboxymethyl)D[Phe(3-Me)]Y(Carboxymethyl)[Bip]Y(Carboxymethyl)[Orn][dL][Dab][Cha][Val(3-OH)]TC[Dab][Pra]-NH2; thioether N-14)
